Experiments:
[1] = extent of photocleavage of PC-Qp by MALDI-MS; assay type: physicochemical; design: Conc. App: unit: μM; details: for concentration of full-length PC-Qp: 50 μM input, native membranes, MALDI-MS, mean of three experiments; for Conc. App: PC-Qp full length; for PC-Qp full length (fraction, MALDI-MS): plus UV (350 nm, 2 min)
Experimental: Native membranes were prepared from cells expressing β2-mCer and were stored in sucrose-supplemented buffer A as described above (Membrane preparations). […]. Both samples were centrifuged 100,000 × g, 5 min, 4 °C to sediment the membrane. Supernatants were stored on ice for analysis by MS. Control samples containing 50 μM peptide in the buffer were also prepared.
Prior to matrix-assisted laser desorption and ionization time-of-flight MS (MALDI-TOF MS) analysis, the samples were desalted using C18 ZipTips (Millipore Corporation, Billerica, MA). The manufacturer’s standard protocol for peptide clean-up was followed. After elution from the ZipTip, 1 μL of each sample was spotted on a MALDI-TOF 384 spot stainless-steel target (Bruker Daltonics, Billerica, MA) and mixed with 1 μl of α-cyano-4-hydroxy-cinnamic acid (α-CHCA) matrix (15 mg/ml α-CHCA in 50% acetonitrile). Each spot was allowed to dry at room temperature. The target was placed in a Bruker Autoflex Speed MALDI-TOF mass spectrometer (Bruker Daltonics, Billerica, MA) equipped with a Nd-YAG 355 nm pulsed laser. The data were collected in reflectron mode, positive polarity, with an accelerating potential of 19 kV. Each spectrum was the accumulation of 4000 laser shots with complete spot raster of the laser during data collection. External calibration was performed using 0.5 μl α-CHCA and 0.5 μl of peptide standard (part# 206195, Bruker Daltonics, Billerica, MA) with Angiotensin II (monoisotopic mass [MH^+ ] 1046.5418), Angiotensin I (monoisotopic mass [MH^+ ] 1296.6848), SubstanceP (monoisotopic mass [MH^+] 1347.7354), Bombesin (monoisotopic mass [MH^+] 1619.8223), ACTH clip 1–17 (monoisotopic mass [MH^+] 2093.0862), ACTH clip 18–39 (monoisotopic mass [MH^+] 2465.1983), and Somatostatin 28 (monoisotopic mass [MH^+] 3147.4710). The Bruker data files were converted to mzXML files using MSConvertGUI tool in ProteoWizard open-source software. The mzXML files were viewed and analyzed with mMass v5.5 open-source software.

[2] = biological target: T1, β2-AR-mCherry, endogenous Gs (Homo sapiens, UniProt P07550); experiment: activation of endogenous Gs (BODIPY-FL-GTPγS), native membranes expressing β2-AR-mCherry; assay type: biochemical
T1 construct: expressed in transfected cells; host or cells: native (not urea-stripped) membranes of HEK293T cells transiently transfected with β2-AR-mCherry
Experimental: Membranes were prepared following a published protocol[56] from HEK293T cells transiently transfected with the appropriate DNA (β2-AR-mCherry, β2-mCerulean, […]-mCherry, β2-AR-ICL3 or β2-AR-Sp). Cells were collected in culture medium and washed twice with PBS by centrifugation (300 × g, 3 min, ambient temperature). […] Cells in solution A were lysed gently (30 strokes) in a chilled Dounce homogenizer in the presence of 1.5 μg/mL aprotinin, 1.5 μg/mL leupeptin, 5 μg/mL phenylmethylsulfonyl fluoride (PMSF) and 1 mM dithiothreitol (DTT). Nuclei and intact cells were eliminated by centrifugation at 1000 × g, 5 min, 4 °C. All subsequent centrifugation steps were performed in a TLA100.4 rotor at 135,000 × g, 30 min, 4 °C. […] HEK293T cells in 15 cm dishes were transiently transfected with β2-AR-mCherry or […]-mCherry plasmid as described in the section on “Cells, Cell culture and Transfections,” earlier. Membranes were isolated and treated with urea as detailed (Membrane preparations). Urea treatment denatures and inactivates the endogenous G proteins, allowing the reconstitution of desired combinations of Gα, and βγ subunits and specific C terminus peptides. Reconstitution reactions were assembled on ice. […] The agonist-stimulated change in fluorescence counts was calculated by subtracting the early stimulation spectra from the post-stimulation spectra. Samples treated with BODIPY buffer (no agonist) were processed similarly, to determine the increase in BODIPY fluorescence without agonist stimulation, which represented nonspecific and basal incorporation of the BODIPY in the reaction time. Specific, agonist-induced change in BODIPY fluorescence was calculated by subtracting the increase in buffer-treated samples from the agonist-mediated increase. This change in fluorescence (increase) provided a measure of BODIPY-FL-GTPγS incorporation into the Gα-subunit. Each reaction provided three agonist and three mock readings. […] BODIPY incorporation was monitored as above. […] The experiment was repeated with mock buffer and agonist-specific G-protein activation was calculated.

[3] = +UV (second block), replicate #1
[4] = +UV (second block), replicate #2
[5] = +UV (second block), replicate #3
[6] = −UV (first block), replicate #1
[7] = −UV (first block), replicate #2
[8] = −UV (first block), replicate #3

- concentration of full-length PC-Qp ([1]; +UV (350 nm, 2 min)): 4.582 µM
- % cleavage [1, 3]: 90.1408%
- % uncleaved [1, 3]: 9.859%
- % cleavage [1, 4]: 90.4762%
- % uncleaved [1, 4]: 9.524%
- % cleavage [1, 5]: 91.8919%
- % uncleaved [1, 5]: 8.108%
- Conc. App [1, 3]: 4.93
- Conc. App [1, 4]: 4.7619
- Conc. App [1, 5]: 4.054
- Conc. App [1, 6]: 33.3333
- Conc. App [1, 7]: 37.7551
- Conc. App [1, 8]: 30.7692
- PC-Qp full length (fraction, MALDI-MS) ([1]; replicate 1): 0.098
- PC-Qp full length (fraction, MALDI-MS) ([1]; replicate 2): 0.095
- PC-Qp full length (fraction, MALDI-MS) ([1]; replicate 3): 0.081
- % cleavage [1, 6]: 33.3333%
- % uncleaved [1, 6]: 66.6667%
- % cleavage [1, 7]: 24.4898%
- % uncleaved [1, 7]: 75.5102%
- % cleavage [1, 8]: 38.4615%
- % uncleaved [1, 8]: 61.5385%
- concentration of full-length PC-Qp ([1]; −UV): 33.9526 µM
- primed G-protein activation response after UV before mixing ([2]; PC-Qp exposed to UV before mixing with other reactants): lost
- persistence of enhanced G-protein activation after photocleavage ([2]; PC-Qp, UV after addition to membranes): 120 s
- increase in G-protein activation in response to fenoterol ([2]; fenoterol 10 μM, 3 min, Qp 30 μM or PC-Qp 50 μM, no UV): ~ 7 fold
Substance: DTENIRFVFAAVKDTILQLNLKE(Anp)NLV [PC-Qp, photocleavable Qp, Y356 replaced by Anp]

— PMC6811539, “Minute-scale persistence of a GPCR conformation state triggered by non-cognate G protein interactions primes signaling” (Nature Communications, 2019)
